Test results from patent publication US8740843B2, “Coated balloon catheter” (Cook Medical Technologies LLC, priority 2009, dated 2014).

Assay: Elution of paclitaxel from coated balloon catheter assemblies in porcine serum elution medium (HPLC)
Assay type: physicochemical
Settings: contrast media vs saline
Experimental: The rate of paclitaxel elution in each of the paclitaxel-coated balloon catheter assemblies described in Example 1 is analyzed in a porcine serum at 37° C. The coated balloon catheter assemblies are then divided into two groups, A and B. The coated balloon catheter assembly in Group A is designated to deliver a saline solution through the apertures of the outer balloon, while the coated balloon catheter assembly in Group B is designated to deliver a contrast media through the apertures of the outer balloon. The contrast media used is ISOVUE®-370 of Bracco Diagnostics (Princeton, N.J.), which included 370 mgl/mL of Iopamidol.
The coated balloon catheter assemblies, expanded to 4 ATM, is contacted with the porcine serum elution medium and continuously stirred for a desired period of time (e.g., at least one hour) selected to gradually dissolve the paclitaxel at a rate similar to dissolution in blood. […] The amount of the paclitaxel dissolved is measured as a function of time by monitoring with High Performance Liquid Chromatography (HPLC) the porcine serum elution medium after contact with the coated balloon catheter assembly. […] The outer balloon of each of the coated balloon catheter assemblies is then detached from the assembly and analyzed using HPCL to measure the amount of paclitaxel left on the coated outer balloon after being in contact with the elution medium for 60 minutes.

CC(=O)O[C@H]1C(=O)[C@@]2(C)[C@H]([C@H](OC(=O)c3ccccc3)[C@]3(O)C[C@H](OC(=O)[C@H](O)[C@@H](NC(=O)c4ccccc4)c4ccccc4)C(C)=C1C3(C)C)[C@]1(OC(C)=O)CO[C@@H]1C[C@@H]2O [paclitaxel]
lower amount of PTX on the outer balloon than Group A balloon catheters (after 60 minutes): ≤ 15% | PTX elutes faster than Group A balloon catheters (time period of 2 to 10 minutes): 2-3 times
